Where a name gives a salt, the structure may show the parent alone.
Assays:
Type in all cases: cell-based
[1] = test system: Enterococcus faecalis #28 (KI, Clinical Isolate); assay: Minimum inhibitory concentration (MIC), visible growth
Escherichia coli CFT073 = assay: as above
[2] = test system: Staphylococcus epidermidis Se19 (Clinical Isolate, Jan Ingemar Falk); assay: as above
Candida albicans = assay: Minimum inhibitory concentration (MIC), visible growth, YPD broth
Experimental: • 1. Using a sterile inoculating loop, transfer bacteria/Candida albicans from frozen stock culture and streak them on a fresh LA plate. • 2. Incubate the plate at 37° C. overnight (o/n) (18-24 h).
• 1. Prepare bacterial culture by adding 20 ml Mueller Hinton broth (*) to a 250-ml Erlenmeyer flask with sidearm. • 2. Using a sterile inoculating loop, pick approximately 10 colonies from the o/n bacterial culture and transfer bacteria to the flask. • 3. Incubate the E-flask with bacteria on a rotating shaker at 37° C. until OD590=0.40. This OD should equal an approximate bacterial count of 1×10^8 cfu/ml (**) • This is measured using a colorimeter (or spectrophotometer). Set reference and press R (=reference) first, then measure the bacterial culture by pressing T (=test). • 4. At OD590 0.40, serially dilute the bacterial suspension 1:10 000 in Mueller Hinton broth to obtain a bacterial target concentration of 1×10^4 cfu/ml. Determine the initial inoculation by serially diluting 0.1 ml in 0.9 ml blanks of sterile PBS and plating 0.1 ml aliquots to LA plates, preferably. • 5. Different concentrations of the tested compound are prepared in 0.6-0.8 ml of the final dilution of bacterial suspension and placed in 2-ml test tubes. • 6. Incubate test tubes in an orbital shaker incubator at 37° C. for 24 h.
• 7. Analyze visible growth, i.e. “Foggy” or “Clear”. MIC is being defined as the interval between the highest “Foggy” and the lowest “Clear” concentration of the compound.
(*) When testing Candida albicans, Yeast extract Peptone Dextrose (YPD) broth is being used.
(**) For Candida albicans it is equal to 1×10^7
Different concentrations of PDEA were also prepared in Yeast extract Peptone Dextrose (YPD) broth. Candida albicans were inoculated to a concentration of 20 000 CFU/ml and incubated at 37° C. for 24 hours. Readouts were “Clear” and “Foggy”.
Different concentrations of the quaternary ammonium PDEA (Example 2) were also prepared in Yeast extract Peptone Dextrose (YPD) broth. Candida albicans were inoculated to a concentration of 20 000 CFU/ml and incubated at 37° C. for 24 hours. Readouts were “Clear” and “Foggy”.
Different concentrations of the Para position-PDEA” is (S)-4-pyridylthio cysteamine were also prepared in Yeast extract Peptone Dextrose (YPD) broth. Candida albicans were inoculated to a concentration of 20 000 CFU/ml and incubated at 37° C. for 24 hours. Readouts were “Clear” and “Foggy”.
Different concentrations of “Carboxylic acid PDEA” is 3-(2-Pyridyldithio)propanoic acid (CAS: 68617-64-1) were also prepared in Yeast extract Peptone Dextrose (YPD) broth. Candida albicans were inoculated to a concentration of 20 000 CFU/ml and incubated at 37° C. for 24 hours. Readouts were “Clear” and “Foggy”.

E. coli [3] = assay: Combination therapy: Fradiomycin with PDEA, visible growth; conditions: Fradiomycin 0 μg/ml
Experimental: (§1) Different concentrations of Fradiomycin in Mueller Hinton were prepared in 3 different concentrations of PDEA. E. coli and S. aureus were inoculated (10^5) and were incubated overnight. Readouts were “Clear” and “Foggy”.

S. aureus [4] = assay: as above; conditions: Fradiomycin 0 μg/ml
Experimental: as §1

E. coli [5] = assay: Combination therapy: Gentamycin with PDEA, visible growth; conditions: Gentamycin 0 μg/ml
Experimental: (§2) Different concentrations of Gentamycin in Mueller Hinton were prepared in 3 different concentrations of PDEA. E. coli and S. aureus were inoculated (10^5) and were incubated O/N.
(§3) Readouts were “Clear” and “Foggy”.

S. aureus [6] = assay: as above; conditions: Gentamycin 0 μg/ml
Experimental: as §2, §3

NCCSSc1ccccn1 [PDEA, 2-(Pyridyldithio)ethylamine (hydrochloride)]
visible growth readout ([1]; 0.05 mM): Foggy | visible growth readout ([1]; 0.1 mM): Foggy | visible growth readout ([1]; 0.2 mM): Clear | visible growth readout ([1]; 0.4 mM): Clear | MIC ([1]; Enterococcus faecalis, 24 h): 100 to 200 µM | visible growth readout (Escherichia coli CFT073; 0.01 mM): Foggy | visible growth readout (Escherichia coli CFT073; 0.025 mM): Foggy | visible growth readout (Escherichia coli CFT073; 0.05 mM): Foggy | visible growth readout (Escherichia coli CFT073; 0.1 mM): Clear | MIC (Escherichia coli CFT073; Escherichia coli, CFT073, 24 h): 50 to 100 µM | visible growth readout ([2]; 0.01 mM): Foggy | visible growth readout ([2]; 0.025 mM): Foggy | visible growth readout ([2]; 0.05 mM): Clear | visible growth readout ([2]; 0.1 mM): Clear | MIC ([2]; Staphylococcus epidermidis, 24 h): 25 to 50 µM | visible growth readout (Candida albicans; 0.01 mM): Foggy | visible growth readout (Candida albicans; 0.025 mM): Foggy | visible growth readout (Candida albicans; 0.05 mM): Foggy | visible growth readout (Candida albicans; 0.1 mM): Foggy | visible growth readout (Candida albicans; 0.2 mM): Foggy | visible growth readout (Candida albicans; 0.4 mM): Foggy | visible growth readout (Candida albicans; 0.8 mM): Clear | visible growth readout (Candida albicans; 1.6 mM): Clear | MIC (Candida albicans; Candida albicans, 24 h): 400 to 800 µM | visible growth readout (E. coli [3]; PDEA 0.0125 mM): Foggy | visible growth readout (E. coli [3]; PDEA 0.025 mM): Foggy | visible growth readout (E. coli [3]; PDEA 0.05 mM): Clear | visible growth readout (S. aureus [4]; PDEA 0.0125 mM): Foggy | visible growth readout (S. aureus [4]; PDEA 0.025 mM): Foggy | visible growth readout (S. aureus [4]; PDEA 0.05 mM): Foggy | Visible growth readout (Clear/Foggy) (E. coli [5]; PDEA 0.0125 mM): Foggy | Visible growth readout (Clear/Foggy) (E. coli [5]; PDEA 0.025 mM): Foggy | Visible growth readout (Clear/Foggy) (E. coli [5]; PDEA 0.04 mM): Clear | Visible growth readout (Clear/Foggy) (S. aureus [6]; PDEA 0.0125 mM): Foggy | Visible growth readout (Clear/Foggy) (S. aureus [6]; PDEA 0.025 mM): Foggy | Visible growth readout (Clear/Foggy) (S. aureus [6]; PDEA 0.05 mM): Foggy
